Test results from patent US8901105B2, “Prodrug derivatives of (E)-N-methyl-N-((3-M ethylbenzofuran-2-yl)methyl)-3-(7-oxo-5,6,7,8-tetrahydro-1,8-naphthyridin-3-yl)acrylamide” (Affinium Pharmaceuticals, Inc., priority 2012, dated 2014).
Where a name gives a salt, the structure may show the parent alone. Read-outs that look alike come from different tables or passages of the source.

Assays:
[1] = Photostability of solid salts; type: physicochemical
Enterococcus faecalis = assay: Broth microdilution MIC; type: cell-based
Experimental: (§1) Bacterial Isolates. Organisms tested in this study are listed in Table P. Clinical isolates consisted of 5 Staphylococcus aureus (MSSA), 3 Staphylococcus aureus (HA-MRSA), 2 Staphylococcus aureus (CA-MRSA), 2 Enterococcus faecalis (VSE), 2 Streptococcus pyogenes, and 2 Escherichia coli (susceptible to most antibiotics). S. aureus ATCC 29213, E. faecalis ATCC 29212, S. pneumoniae ATCC 49619, and E. coli ATCC 25922 were tested for the purposes of quality control.
(§2) Minimal Inhibitory Concentrations (MIC) values against the selected isolates were determined using the reference broth microdilution method according to the Clinical Laboratory Standards Institute (CLSI) guidelines.
(§3) The MIC was read and recorded as the lowest concentration of drug that inhibited visible growth of the organism.

Streptococcus pneumoniae = assay: Broth microdilution MIC; type: cell-based; settings: ATCC49619, S. pneumoniae ATCC 49619, read-out: MIC
Experimental: as §1, §2, §3

Escherichia coli = assay: Broth microdilution MIC; type: cell-based; settings: Escherichia coli, read-out: MIC
Experimental: as §1, §2, §3

Streptococcus pyogenes = assay: Broth microdilution MIC; type: cell-based
Experimental: as §1, §2, §3

[2] = Solid-state stability (HPLC % area after storage); type: physicochemical
Experimental: (§4) Various compounds disclosed herein have been placed on long-term solid-state stability protocol. The compounds were stored in glass vials closed with PTFE lined caps at 30° C./65% RH, 40° C./75% RH, 50° C. and 60° C. (ambient humidity). The results of the study after 4 weeks are shown in Table B1 and after 3 months in Table B2. Appearance and purity analysis were conducted using HPLC and XPRD. The HPLC analyses were conducted using standard equipment such as a Agilent HP1100 HPLC (Station ID: LZPES HPLC 04) with YMC-Pack ODS-AQ sub 3 μm, 150×4.6 mm

[3] = Solution stability in 5% dextrose in water (D5W); type: physicochemical
[4] = Solution stability in water for injection (WFI); type: physicochemical
[5] = XRPD crystal form after storage; type: physicochemical; settings: after 3 months at all conditions
Experimental: as §4, with “mm Samples were prepared for XRPD by sprinkling ˜20 mg onto a Si wafer zero background plate and pressing the material flat to ensure the surface is smooth and level. The samples were analyzed according the equipment parameters below.” for “mm”

S. aureus FabI = molecular target: T1, S. aureus FabI (Staphylococcus aureus, UniProt Q6GI75); assay: Inhibition of S. aureus FabI; type: biochemical
T1 sequence (Q6GI75 1-256): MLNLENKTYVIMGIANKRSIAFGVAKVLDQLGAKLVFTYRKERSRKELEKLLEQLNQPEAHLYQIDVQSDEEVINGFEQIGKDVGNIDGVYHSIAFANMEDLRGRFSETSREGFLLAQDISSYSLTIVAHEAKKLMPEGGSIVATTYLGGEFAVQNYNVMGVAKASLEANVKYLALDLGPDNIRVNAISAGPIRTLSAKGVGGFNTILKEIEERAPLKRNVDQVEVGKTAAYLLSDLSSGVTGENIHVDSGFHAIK

[6] = 1 mg/mL solution, 5° C., 4 hours
[7] = 1 mg/mL solution, 5° C., 24 hours
[8] = 1 mg/mL solution, 5° C., 48 hours
[9] = 1 mg/mL solution, −20° C., 48 hours
[10] = 25 mg/mL solution, 5° C., 4 hours
[11] = 25 mg/mL solution, 5° C., 24 hours
[12] = 25 mg/mL solution, 5° C., 48 hours
[13] = 25 mg/mL solution, RT, 24 hours
[14] = 25 mg/mL solution, RT, 48 hours
[15] = 25 mg/mL solution, −20° C., 48 hours

- Control % Area (Table C) ([1]; control sample at ambient lab conditions protected from light): 98.9 % Area
- Photo-stability % Area ([1]; exposed to 60% of ICH minimum): 97.7 % Area
- MIC (Enterococcus faecalis; ATCC29212, E. faecalis ATCC 29212, read-out: MIC): > 16 µg/mL
- MIC (Enterococcus faecalis; E. faecalis 4158, VSE, read-out: MIC): > 16 µg/mL
- MIC (Enterococcus faecalis; E. faecalis 4212, VSE, read-out: MIC): > 16 µg/mL
- MIC (Streptococcus pneumoniae): > 16 µg/mL
- MIC (Escherichia coli; ATCC25922, E. coli ATCC 25922): > 16 µg/mL
- MIC (Escherichia coli; E. coli 2214): > 16 µg/mL
- MIC (Escherichia coli; E. coli 5255): > 16 µg/mL
- MIC (Streptococcus pyogenes; S. pyogenes 6528): >16 µg/mL
- MIC (Streptococcus pyogenes; Streptococcus pyogenes, S. pyogenes 6179, read-out: MIC): > 16 µg/mL
- Solid-state stability % Area ([2]; 3 months, 30° C./65% RH): 98.61 % Area
- Solid-state stability % Area ([2]; 3 months, 40° C./75% RH): 92.75 % Area
- Solid-state stability % Area ([2]; 3 months, 50° C./ambient humidity): 99.04 % Area
- Solid-state stability % Area ([2]; 3 months, Control (ambient lab conditions protected from light)): 98.9 % Area
- Solid-state stability % Area ([2]; 4 weeks, 30° C./65% RH): 98.5 % Area
- Solid-state stability % Area ([2]; 4 weeks, 40° C./75% RH): 98.2 % Area
- Solid-state stability % Area ([2]; 4 weeks, 50° C./ambient humidity): 99.3 % Area
- Solid-state stability % Area ([2]; 4 weeks, 60° C./ambient humidity): 98.7 % Area
- Solid-state stability % Area ([2]; 4 weeks, Control (ambient lab conditions protected from light)): 98.9 % Area
- physical and chemical stability ([2]; over 3 months at 30° C./65% RH and 50° C., closed vials, light protected): physically and chemically stable
- Solution stability [3, 6]: 0.99 mg/mL
- Solution stability % Area [3, 6]: 99.4 % Area
- Solution stability [3, 7]: 0.99 mg/mL
- Solution stability % Area [3, 7]: 98.8 % Area
- Solution stability [3, 8]: 1.00 mg/mL
- Solution stability % Area [3, 8]: 98.1 % Area
- Solution stability ([3]; 1 mg/mL solution, Initial): 1.00 mg/mL
- Solution stability % Area ([3]; 1 mg/mL solution, Initial): 99.5 % Area
- Solution stability ([3]; 1 mg/mL solution, RT, 4 hours): 0.99 mg/mL
- Solution stability % Area ([3]; 1 mg/mL solution, RT, 4 hours): 99 % Area
- Solution stability ([3]; 1 mg/mL solution, RT, 24 hours): 0.96 mg/mL
- Solution stability % Area ([3]; 1 mg/mL solution, RT, 24 hours): 96.1 % Area
- Solution stability ([3]; 1 mg/mL solution, RT, 48 hours): 0.95 mg/mL
- Solution stability % Area ([3]; 1 mg/mL solution, RT, 48 hours): 93.1 % Area
- Solution stability [3, 9]: 0.99 mg/mL
- Solution stability % Area [3, 9]: 99.3 % Area
- Solution stability [3, 10]: 24.9 mg/mL
- Solution stability % Area [3, 10]: 99.3 % Area
- Solution stability [3, 11]: 24.5 mg/mL
- Solution stability % Area [3, 11]: 98.7 % Area
- Solution stability [3, 12]: 24.5 mg/mL
- Solution stability % Area [3, 12]: 98.1 % Area
- Solution stability ([3]; 25 mg/mL solution, Initial): 24.4 mg/mL
- Solution stability % Area ([3]; 25 mg/mL solution, Initial): 99.6 % Area
- Solution stability ([3]; 25 mg/mL solution, RT, 4 hours): 24 mg/mL
- Solution stability % Area ([3]; 25 mg/mL solution, RT, 4 hours): 98.9 % Area
- Solution stability [3, 13]: 23.8 mg/mL
- Solution stability % Area [3, 13]: 95.6 % Area
- Solution stability [3, 14]: 23 mg/mL
- Solution stability % Area [3, 14]: 92.1 % Area
- Solution stability [3, 15]: 24.6 mg/mL
- Solution stability % Area [3, 15]: 99.3 % Area
- Solution stability [4, 6]: 0.96 mg/mL
- Solution stability % Area [4, 6]: 99.4 % Area
- Solution stability [4, 7]: 0.94 mg/mL
- Solution stability % Area [4, 7]: 98.1 % Area
- Solution stability [4, 8]: 0.96 mg/mL
- Solution stability % Area [4, 8]: 98.1 % Area
- Solution stability ([4]; 1 mg/mL solution, Initial): 0.97 mg/mL
- Solution stability % Area ([4]; 1 mg/mL solution, Initial): 99.4 % Area
- Solution stability ([4]; 1 mg/mL solution, RT, 4 hours): 0.94 mg/mL
- Solution stability % Area ([4]; 1 mg/mL solution, RT, 4 hours): 99.0 % Area
- Solution stability ([4]; 1 mg/mL solution, RT, 24 hours): 0.92 mg/mL
- Solution stability % Area ([4]; 1 mg/mL solution, RT, 24 hours): 95.5 % Area
- Solution stability ([4]; 1 mg/mL solution, RT, 48 hours): 0.64 mg/mL
- Solution stability % Area ([4]; 1 mg/mL solution, RT, 48 hours): 92.1 % Area
- Solution stability [4, 9]: 0.96 mg/mL
- Solution stability % Area [4, 9]: 99.3 % Area
- Solution stability [4, 10]: 25.0 mg/mL
- Solution stability % Area [4, 10]: 99.3 % Area
- Solution stability [4, 11]: 24.4 mg/mL
- Solution stability % Area [4, 11]: 98.6 % Area
- Solution stability [4, 12]: 23.1 mg/mL
- Solution stability % Area [4, 12]: 98.0 % Area
- Solution stability ([4]; 25 mg/mL solution, Initial): 24.05 mg/mL
- Solution stability % Area ([4]; 25 mg/mL solution, Initial): 99.5 % Area
- Solution stability ([4]; 25 mg/mL solution, RT, 4 hours): 23.9 mg/mL
- Solution stability % Area ([4]; 25 mg/mL solution, RT, 4 hours): 98.8 % Area
- Solution stability [4, 13]: 22.5 mg/mL
- Solution stability % Area [4, 13]: 95.2 % Area
- Solution stability [4, 14]: 22.8 mg/mL
- Solution stability % Area [4, 14]: 91.5 % Area
- Solution stability [4, 15]: 24.4 mg/mL
- Solution stability % Area [4, 15]: 99.2 % Area
- change in crystal form (XRPD) [5]: no change in crystal form
- inhibition of S. aureus FabI (S. aureus FabI): no inhibition
Compound: Cc1c(CN(C)C(=O)/C=C/c2cnc3c(c2)CCC(=O)N3COP(=O)(O)O)oc2ccccc12 [Compound 10, (E)-6-[(N-methyl-((3-methylbenzofuran-2-yl)methyl)amino)-3-oxoprop-1-en-1-yl)-2-oxo-3,4-dihydro-1,8-naphthyridin-1(2H)-yl]methylphosphate bis-ethanolammonium salt]
